pEC50, pIC50: −log10 of the molar value.
How the values were obtained:
MTHFD2 [1] = molecular target: T1, MTHFD2 (Homo sapiens (Human), UniProt P13995); experiment: Inhibition of MTHFD2 (NAD(P)H-Glo luminescence); type: biochemical; details: 3.4 nmol/L MTHFD2, 5 μmol/L folitixorin, 250 μmol/L NAD+; mean of at least 3 independent measurements
Procedure: DMSO was used as negative control. The serial dilution in DMSO, from compound DMSO stock solution, was created by dispensing from a 384-well low dead volume microplate (LP-0200, Labcyte) and a 384-well polypropylene microplate 2.0 (PP-0200, Labcyte). A total of 2.5 μL MTHFD2 was preincubated with compound or DMSO for 10 min. The enzymatic reaction was initiated by adding 2.5 μL folitixorin (F680350, Toronto Research Chemicals). For background control, 5 μL buffer was added to the well. […] The final concentrations of all reagents in a total assay volume of 5 μL per well were 50 mmol/L Tris-HCl at pH 8.0, 100 mmol/L NaCl, 5 mmol/L MgCl2, 25 mmol/L Na3PO4 at pH 8.0, 0.005% (v/v) Tween-20, and 2 mmol/L 2-mercaptoethanol. After 15 min reaction time, 5 μL NAD(P)H-Glo detection reagent (G9061 or G9062, Promega) was dispensed in all wells and the plate was incubated for 60 min. Luminescence was measured on a plate reader (Envision, PerkinElmer or Sense, Hidex). The light signal produced is proportional to the amount of NAD(P)H in the sample. IC50 values were determined by fitting a four parameter sigmoidal curve model using XLfit (IDBS). Reported IC50 values are the mean of at least 3 independent measurements.

HL-60 cells = experiment: Cancer cell viability assay (HL-60, resazurin); type: cell-based; details: Homo sapiens, 96 h, mean of at least 3 independent measurements, read-out: HL60 cell proliferation inhibition EC50
Procedure: HL-60 cells (human promyelocytic leukemia cells) were seeded in a 384-well plate at a density of 2,000 cells per well in 50 μL induction medium and treated with vehicle (DMSO) or an 11-point concentration range with 3-fold dilution in concentration of compound. Each assay point was run in duplicate. Wells without cells but with DMSO were used as negative controls. The cells were left to proliferate over a period of 96 h, in an incubator at 37° C. and 5% CO2, followed by an addition of 10 μL […] resazurin sodium salt (199303, Sigma-Aldrich) dissolved in DPBS (14190, Gibco). After 4 h of incubation at 37° C. and 5% CO2, the fluorescent signal was measured using an excitation wavelength of 544 nm and an emission wavelength of 595 nm in a Hidex Sense plate reader. Cell plates were incubated in boxes with damp paper tissues to avoid evaporation. All additions, except compound and DMSO, were done using the Multidrop Combi (Thermo Fisher Scientific). DMSO and compounds were pre-dispensed with an Echo 550 Liquid handler (Labcyte) in black, clear bottom, TC-treated and sterile 384-well plates (3764, Corning). Growth medium consisted of RPMI 1640 GlutaMAX (61870, Gibco), 10% (v/v) FBS (10500, Gibco), and 1% (v/v) P/S (15070, Gibco). Induction medium consisted of RPMI 1640 GlutaMAX (61870, Gibco), 5% (v/v) FBS (10500, Gibco), and 1% (v/v) P/S (15070, Gibco). EC50 values were determined by fitting a four parameter sigmoidal curve model using XLfit (IDBS). Reported EC50 values are the mean of at least 3 independent measurements.

[2] = test system: colorectal cancer patient-derived xenograft; details: colorectal cancer patient-derived xenograft mouse models; Ju et al. (2019); cited from earlier work
MTHFD2 [3] = molecular target: T1, MTHFD2; details: Fu et al. Nat. Commun. (2017); cited from earlier work

T1 sequence (P13995 36-350): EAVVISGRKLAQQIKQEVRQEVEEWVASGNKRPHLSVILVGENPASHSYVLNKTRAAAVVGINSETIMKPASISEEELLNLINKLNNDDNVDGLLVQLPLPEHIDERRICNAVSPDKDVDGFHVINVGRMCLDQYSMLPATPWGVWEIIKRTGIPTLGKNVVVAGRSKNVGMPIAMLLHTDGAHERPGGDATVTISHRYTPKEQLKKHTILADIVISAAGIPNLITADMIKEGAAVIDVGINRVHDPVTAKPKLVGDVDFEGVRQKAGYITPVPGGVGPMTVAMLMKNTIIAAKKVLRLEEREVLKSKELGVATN

Compound | pIC50 (MTHFD2 [1]) | pEC50 (HL-60 cells) | tumor growth [2] | tumor weight [2] | inhibitor of human MTHFD2 (MTHFD2 [3])
Nc1nc(N)c(NC(=O)Nc2ccc(C(=O)N[C@@H](CCC(=O)N[C@@H](CCC(=O)O)C(=O)O)C(=O)O)nc2)c(=O)[nH]1 [Example 23, (2S)-2-[(4S)-4-carboxy-4-[(5-{[(2,4-diamino-6-oxo-1,6-dihydropyrimidin-5-yl)carbamoyl]amino}pyridin-2-yl)formamido]butanamido]pentanedioic acid] | 7.37 | 6.08 |  |  | 
Nc1nc(N)c(NC(=O)Nc2cnc(C(=O)N[C@@H](CCc3nnn[nH]3)C(=O)O)c(F)c2)c(=O)[nH]1 [Example 24, (2S)-2-[(5-{[(2,4-diamino-6-oxo-1,6-dihydropyrimidin-5-yl)carbamoyl]amino}-3-fluoropyridin-2-yl)formamido]-4-(1H-1,2,3,4-tetrazol-5-yl)butanoic acid] | 8.52 | 8.70 |  |  | 
Nc1nc(N)c(NC(=O)Nc2ccc(C(=O)N[C@@H](CCC(=O)N[C@H](CCC(=O)O)C(=O)O)C(=O)O)nc2)c(=O)[nH]1 [Example 25, (2R)-2-[(4S)-4-carboxy-4-[(5-{[(2,4-diamino-6-oxo-1,6-dihydropyrimidin-5-yl)carbamoyl]amino}pyridin-2-yl)formamido]butanamido]pentanedioic acid] | 7.52 | 5.71 |  |  | 
Nc1nc(N)c(CC(=O)Nc2ccc(C(=O)N[C@@H](CCC(=O)O)C(=O)O)nc2Oc2ccccc2)c(=O)[nH]1 [Example 26, (2S)-2-((5-[2-(2,4-diamino-6-oxo-1,6-dihydropyrimidin-5-yl)acetamido]-6-phenoxypyridin-2-yl)formamido)pentanedioic acid] | 7.85 | 5.21 |  |  | 
Nc1nc(N)c(CC(=O)Nc2ccc(C(=O)N[C@@H](CCC(=O)O)C(=O)O)nc2-c2ccccc2)c(=O)[nH]1 [Example 27, (2S)-2-((5-[2-(2,4-diamino-6-oxo-1,6-dihydropyrimidin-5-yl)acetamido]-6-phenylpyridin-2-yl)formamido)pentanedioic acid] | 7.19 | 5.56 |  |  | 
Nc1nc(N)c(CC(=O)Nc2ccc(C(=O)N[C@@H](CCC(=O)N[C@@H](CCC(=O)O)C(=O)O)C(=O)O)nc2)c(=O)[nH]1 [Example 28, (2S)-2-[(4S)-4-carboxy-4-({5-[2-(2,4-diamino-6-oxo-1,6-dihydropyrimidin-5-yl)acetamido]pyridin-2-yl}formamido)butanamido]pentanedioic acid] | 7.04 | 7.66 |  |  | 
COc1nc(C(=O)N[C@@H](CCC(=O)O)C(=O)O)ccc1NC(=O)Cc1c(N)nc(N)[nH]c1=O [Example 29, (2S)-2-({5-[2-(2,4-diamino-6-oxo-1,6-dihydropyrimidin-5-yl)acetamido]-6-methoxypyridin-2-yl}formamido)pentanedioic acid] | 7.36 | 5.95 |  |  | 
Nc1nc(N)c(CC(=O)Nc2cnc(C(=O)N[C@@H](CCC(=O)O)C(=O)O)c(C(F)(F)F)c2)c(=O)[nH]1 [Example 30, (2S)-2-((5-[2-(2,4-diamino-6-oxo-1,6-dihydropyrimidin-5-yl)acetamido]-3-(trifluoromethyl)pyridin-2-yl)formamido)pentanedioic acid] | 5.96 | 6.79 |  |  | 
CC(C)[C@H](NC(=O)c1ncc(NC(=O)Nc2c(N)nc(N)[nH]c2=O)cc1F)C(=O)O [Example 31, (2S)-2-[(5-{[(2,4-diamino-6-oxo-1,6-dihydropyrimidin-5-yl)carbamoyl]amino}-3-fluoropyridin-2-yl)formamido]-3-methylbutanoic acid] | 8.10 | 7.70 |  |  | 
Nc1nc(N)c(CC(=O)Nc2cnc(C(=O)N[C@@H](CCc3nnn[nH]3)C(=O)O)c(F)c2)c(=O)[nH]1 [Example 32, (2S)-2-((5-[2-(2,4-diamino-6-oxo-1,6-dihydropyrimidin-5-yl)acetamido]-3-fluoropyridin-2-yl)formamido)-4-(1H-1,2,3,4-tetrazol-5-yl)butanoic acid] | 7.89 | 8.00 |  |  | 
Nc1nc(N)c(CC(=O)Nc2cnc(C(=O)N[C@@H](Cc3ccccc3)C(=O)O)c(F)c2)c(=O)[nH]1 [Example 33, (2S)-2-((5-[2-(2,4-diamino-6-oxo-1,6-dihydropyrimidin-5-yl)acetamido]-3-fluoropyridin-2-yl)formamido)-3-phenylpropanoic acid] | 7.04 | 7.62 |  |  | 
CC(C)[C@H](NC(=O)c1ncc(NC(=O)Cc2c(N)nc(N)[nH]c2=O)cc1F)C(=O)O [Example 34, (2S)-2-((5-[2-(2,4-diamino-6-oxo-1,6-dihydropyrimidin-5-yl)acetamido]-3-fluoropyridin-2-yl)formamido)-3-methylbutanoic acid] | 7.22 | 6.75 |  |  | 
Nc1nc(N)c(NC(=O)Nc2cnc(C(=O)N[C@@H](Cc3ccccc3)C(=O)O)c(F)c2)c(=O)[nH]1 [Example 35, (2S)-2-[(5-{[(2,4-diamino-6-oxo-1,6-dihydropyrimidin-5-yl)carbamoyl]amino}-3-fluoropyridin-2-yl)formamido]-3-phenylpropanoic acid] | 8.30 | 7.70 |  |  | 
Nc1nc2c(c(=O)[nH]1)N1C(=O)N(c3ccc(C(=O)N[C@@H](CCC(=O)O)C(=O)O)cc3)CC1CN2 (some centres unmarked) [LY345899] |  |  | statistically significantly suppresses tumor growth | decreases tumor weight | 
CO[C@H](CC(=O)O)[C@@H](C)C(=O)[C@H](C)/C=C(\C)[C@H]1OC(=O)[C@H](O)[C@H](O)/C=C/[C@H](C)CCC[C@@H]1C [carolacton] |  |  |  |  | nanomolar inhibitor

Reference: patent US11504368B2, “2,6-diamino-3,4-dihydropyrimidin-4-one derivatives and use thereof in therapy” (THOMAS HELLEDAYS STIFTELSE FÖR MEDICINSK FORSKNING, priority 2018, dated 2022)
